Test results reported in patent publication US9828369B2, “Isoquinoline derivatives useful as inhibitors of diacylglyceride O-acyltransferase 2” (Merck Sharp & Dohme Corp., priority 2014, dated 2017).
pIC50: −log10 of the molar value. Read-outs that look alike come from different tables or passages of the source.

Target: hDGAT2 (Homo sapiens (Human), UniProt Q96PD7)
Experiment: DGAT2 enzymatic activity assay (triolein formation, LC/MS/MS)
[1] = read-out: IC50 values for inhibition of DGAT2, membrane prep of Sf-9 cells expressing hDGAT2, 25 μM diolein, 10 μM oleoyl-CoA, room temperature, triolein by LC/MS/MS

Chain of hDGAT2 (Q96PD7 whole entry): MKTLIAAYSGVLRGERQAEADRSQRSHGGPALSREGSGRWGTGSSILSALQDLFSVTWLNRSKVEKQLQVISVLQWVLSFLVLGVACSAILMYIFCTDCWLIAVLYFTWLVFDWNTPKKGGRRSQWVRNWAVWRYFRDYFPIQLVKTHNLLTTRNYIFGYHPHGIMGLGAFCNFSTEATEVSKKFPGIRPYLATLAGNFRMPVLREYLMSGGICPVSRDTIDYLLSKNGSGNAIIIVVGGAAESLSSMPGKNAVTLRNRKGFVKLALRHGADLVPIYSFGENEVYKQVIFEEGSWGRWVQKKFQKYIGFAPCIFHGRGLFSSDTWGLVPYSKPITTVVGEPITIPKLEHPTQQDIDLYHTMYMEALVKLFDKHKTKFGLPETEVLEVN

Row | Compound | pIC50 [1] | pIC50
1 | COc1ccc([C@H]2C[C@@H]2C(=O)NCc2ccc(-c3cccc(OC)c3)c3ccncc23)cc1 [Example 23, (1S,2S)-2-(4-methoxyphenyl)-N-((5-(3-methoxyphenyl)isoquinolin-8-yl)methyl)cyclopropanecarboxamide] | 5.00 | 
2 | COc1cccc(-c2ccc(CNC(=O)c3cc(C4CC4)on3)c3cnccc23)c1 [Example 26, 5-cyclopropyl-N-((5-(3-methoxyphenyl)isoquinolin-8-yl)methyl)isoxazole-3-carboxamide] | 5.69 | 
3 | COc1cccc(-c2ccc(CNC(=O)CC(c3ccccc3)c3ccco3)c3cnccc23)c1 (stereo not shown) [Example 27, 3-(furan-2-yl)-N-((5-(3-methoxyphenyl)isoquinolin-8-yl)methyl)-3-phenylpropanamide] | 5.17 | 
4 | COc1cccc(-c2ccc(CNC(=O)c3cncc(Br)c3)c3cnccc23)c1 [Example 28, 5-bromo-N-((5-(3-methoxyphenyl)isoquinolin-8-yl)methyl)nicotinamide] | 5.41 | 
5 | COc1cccc(-c2ccc(CNC(=O)c3cc(C(F)(F)F)n[nH]3)c3cnccc23)c1 [Example 29, N-((5-(3-methoxyphenyl)isoquinolin-8-yl)methyl)-3-(trifluoromethyl)-1H-pyrazole-5-carboxamide] | 5.75 | 
6 | COc1cccc(-c2ccc(CNC(=O)CCc3nc(-c4ccccc4)no3)c3cnccc23)c1 [Example 30, N-((5-(3-methoxyphenyl)isoquinolin-8-yl)methyl)-3-(3-phenyl-1,2,4-oxadiazol-5-yl)propanamide] | 6.09 | 
7 | COc1cccc(-c2ccc(CNC(=O)Cc3cccc(Cl)c3Cl)c3cnccc23)c1 [Example 31, 2-(2,3-dichlorophenyl)-N-((5-(3-methoxyphenyl)isoquinolin-8-yl)methyl)acetamide] | 6.05 | 
8 | COc1cccc(-c2ccc(CNC(=O)c3cccc4cccnc34)c3cnccc23)c1 [Example 32, N-((5-(3-methoxyphenyl)isoquinolin-8-yl)methyl)quinoline-8-carboxamide] | 5.70 | 
9 | COc1cccc(-c2ccc(CNC(=O)c3cncc4ccccc34)c3cnccc23)c1 [Example 33, N-((5-(3-methoxyphenyl)isoquinolin-8-yl)methyl)isoquinoline-4-carboxamide] | 5.47 | 
10 | COc1cccc(-c2ccc(CNC(=O)c3cccc(-n4cccn4)c3)c3cnccc23)c1 [Example 34, N-((5-(3-methoxyphenyl)isoquinolin-8-yl)methyl)-3-(1H-pyrazol-1-yl)benzamide] | 5.13 | 
11 | CCc1cc(C(=O)NCc2ccc(-c3cccc(OC)c3)c3ccncc23)n(C)n1 [Example 35, 3-ethyl-N-((5-(3-methoxyphenyl)isoquinolin-8-yl)methyl)-1-methyl-1H-pyrazole-5-carboxamide] | 5.46 | 
12 | COc1cccc(-c2ccc(CNC(=O)c3ccc4c(c3)OCCO4)c3cnccc23)c1 [Example 36, N-((5-(3-methoxyphenyl)isoquinolin-8-yl)methyl)-2,3-dihydrobenzo[b][1,4]dioxine-6-carboxamide] | 5.52 | 
13 | COc1cccc(-c2ccc(CNC(=O)c3cnco3)c3cnccc23)c1 [Example 37, N-((5-(3-methoxyphenyl)isoquinolin-8-yl)methyl)oxazole-5-carboxamide] | 5.90 | 
14 | COc1cccc(-c2ccc(CNC(=O)c3ncco3)c3cnccc23)c1 [Example 38, N-((5-(3-methoxyphenyl)isoquinolin-8-yl)methyl)oxazole-2-carboxamide] | 5.50 | 
15 | COc1cccc(-c2ccc(CNC(=O)c3noc4c3CCCC4)c3cnccc23)c1 [Example 39, N-((5-(3-methoxyphenyl)isoquinolin-8-yl)methyl)-4,5,6,7-tetrahydrobenzo[d]isoxazole-3-carboxamide] | 5.03 | 
16 | COc1cccc(-c2ccc(CNC(=O)c3ccc4nccnc4c3)c3cnccc23)c1 [Example 40, N-((5-(3-methoxyphenyl)isoquinolin-8-yl)methyl)quinoxaline-6-carboxamide] | 5.22 | 
17 | COc1cccc(-c2ccc(CNC(=O)C3CCCN(c4ccccn4)C3)c3cnccc23)c1 (stereo not shown) [Example 41, N-((5-(3-methoxyphenyl)isoquinolin-8-yl)methyl)-1-(pyridin-2-yl)piperidine-3-carboxamide] | 5.11 | 
18 | COc1cccc(-c2ccc(CNC(=O)c3nn(C)c(=O)c4ccccc34)c3cnccc23)c1 [Example 43, N-((5-(3-methoxyphenyl)isoquinolin-8-yl)methyl)-3-methyl-4-oxo-3,4-dihydrophthalazine-1-carboxamide] | 5.81 | 
19 | CCCc1cc(C(=O)NCc2ccc(-c3cccc(OC)c3)c3ccncc23)n(C)n1 [Example 44, N-((5-(3-methoxyphenyl)isoquinolin-8-yl)methyl)-1-methyl-3-propyl-1H-pyrazole-5-carboxamide] | 5.84 | 
20 | COc1cccc(-c2ccc(CNC(=O)c3cccc4ncccc34)c3cnccc23)c1 [Example 45, N-((5-(3-methoxyphenyl)isoquinolin-8-yl)methyl)quinoline-5-carboxamide] | 6.13 | 

Row | Compound | pIC50 [1] | pIC50
21 | COc1cccc(-c2ccc(CNC(=O)Cc3ccc(C(F)(F)F)cc3)c3cnccc23)c1 [Example 46, N-((5-(3-methoxyphenyl)isoquinolin-8-yl)methyl)-2-(4-(trifluoromethyl)phenyl)acetamide] | 6.50 | 
22 | COc1cccc(-c2ccc(CNC(=O)Cc3ccc(Cl)cc3)c3cnccc23)c1 [Example 47, 2-(4-chlorophenyl)-N-((5-(3-methoxyphenyl)isoquinolin-8-yl)methyl)acetamide] | 5.86 | 
23 | COc1cccc(-c2ccc(CNC(=O)Cc3cccc(C(F)(F)F)c3)c3cnccc23)c1 [Example 48, N-((5-(3-methoxyphenyl)isoquinolin-8-yl)methyl)-2-(3-(trifluoromethyl)phenyl)acetamide] | 6.54 | 
24 | COc1cccc(-c2ccc(CNC(=O)Cc3ccccc3F)c3cnccc23)c1 [Example 49, 2-(2-fluorophenyl)-N-((5-(3-methoxyphenyl)isoquinolin-8-yl)methyl)acetamide] | 6.00 | 
25 | COc1cccc(-c2ccc(CNC(=O)Cc3ccccc3C(F)(F)F)c3cnccc23)c1 [Example 51, N-((5-(3-methoxyphenyl)isoquinolin-8-yl)methyl)-2-(2-(trifluoromethyl)phenyl)acetamide] | 5.76 | 
26 | COc1cccc(-c2ccc(CNC(=O)Cc3cccc(F)c3)c3cnccc23)c1 [Example 52, 2-(3-fluorophenyl)-N-((5-(3-methoxyphenyl)isoquinolin-8-yl)methyl)acetamide] | 5.43 | 
27 | COc1cccc(-c2ccc(CNC(=O)Cc3ccc(Oc4ccccc4)cc3)c3cnccc23)c1 [Example 53, N-((5-(3-methoxyphenyl)isoquinolin-8-yl)methyl)-2-(4-phenoxyphenyl)acetamide] | 5.67 | 
28 | COc1cccc(-c2ccc(CNC(=O)Cc3cccc(Cl)c3)c3cnccc23)c1 [Example 54, 2-(3-chlorophenyl)-N-((5-(3-methoxyphenyl)isoquinolin-8-yl)methyl)acetamide] | 5.56 | 
29 | COc1cccc(-c2ccc(CNC(=O)Cc3ccccc3Oc3ccccc3)c3cnccc23)c1 [Example 55, N-((5-(3-methoxyphenyl)isoquinolin-8-yl)methyl)-2-(2-phenoxyphenyl)acetamide] | 6.51 | 
30 | COc1cccc(-c2ccc(CNC(=O)Cc3cccc(S(C)(=O)=O)c3)c3cnccc23)c1 [Example 56, N-((5-(3-methoxyphenyl)isoquinolin-8-yl)methyl)-2-(3-(methylsulfonyl)phenyl)acetamide] | 5.79 | 
31 | COc1cccc(-c2ccc(CNC(=O)Cc3ccc(OC(F)(F)F)cc3)c3cnccc23)c1 [Example 57, N-((5-(3-methoxyphenyl)isoquinolin-8-yl)methyl)-2-(4-(trifluoromethoxy)phenyl)acetamide] | 5.35 | 
32 | COc1cccc(-c2ccc(CNC(=O)Cc3ccc(F)c(F)c3F)c3cnccc23)c1 [Example 58, N-((5-(3-methoxyphenyl)isoquinolin-8-yl)methyl)-2-(2,3,4-trifluorophenyl)acetamide] | 5.14 | 
33 | COc1cccc(-c2ccc(CNC(=O)Cc3cc(F)c(F)cc3F)c3cnccc23)c1 [Example 59, N-((5-(3-methoxyphenyl)isoquinolin-8-yl)methyl)-2-(2,4,5-trifluorophenyl)acetamide] | 6.26 | 
34 | COc1cccc(-c2ccc(CNC(=O)Cc3cc(F)c(F)c(F)c3)c3cnccc23)c1 [Example 60, N-((5-(3-methoxyphenyl)isoquinolin-8-yl)methyl)-2-(3,4,5-trifluorophenyl)acetamide] | 5.67 | 
35 | COc1cccc(-c2ccc(CNC(=O)Cc3ccccc3OC(F)(F)F)c3cnccc23)c1 [Example 61, N-((5-(3-methoxyphenyl)isoquinolin-8-yl)methyl)-2-(2-(trifluoromethoxy)phenyl)acetamide] | 6.12 | 
36 | COc1cccc(-c2ccc(CNC(=O)Cc3cccc(OC(F)(F)F)c3)c3cnccc23)c1 [Example 62, N-((5-(3-methoxyphenyl)isoquinolin-8-yl)methyl)-2-(3-(trifluoromethoxy)phenyl)acetamide] | 6.22 | 
37 | COc1cccc(-c2ccc(CNC(=O)Cc3ccc4c(c3)OCCO4)c3cnccc23)c1 [Example 63, 2-(2,3-dihydrobenzo[b][1,4]dioxin-6-yl)-N-((5-(3-methoxyphenyl)isoquinolin-8-yl)methyl)acetamide] | 5.52 | 
38 | COc1cccc(-c2ccc(CNC(=O)Cc3csc(-c4ccc(F)cc4)n3)c3cnccc23)c1 [Example 64, 2-(2-(4-fluorophenyl)thiazol-4-yl)-N-((5-(3-methoxyphenyl)isoquinolin-8-yl)methyl)acetamide] | 6.22 | 
39 | COc1cccc(-c2ccc(CNC(=O)c3ccc(-n4cccn4)cc3)c3cnccc23)c1 [Example 65, N-((5-(3-methoxyphenyl)isoquinolin-8-yl)methyl)-4-(1H-pyrazol-1-yl)benzamide] |  | 5.70
40 | COc1cccc(-c2ccc(CNC(=O)c3cn(-c4ccccc4)nc3-c3ccccc3)c3cnccc23)c1 [Example 66, N-((5-(3-methoxyphenyl)isoquinolin-8-yl)methyl)-1,3-diphenyl-1H-pyrazole-4-carboxamide] | 6.32 | 
